Read-outs that look alike come from different tables or passages of the source.
Columns and labels:
[1] = tested on: KOPM-88 (MLL-PTD) cells; test: Combination proliferation assay with Compound A2 (Chou-Talalay CI); assay type: cell-based, human
Description: (§1) Graphs representing values of combination index (CI) versus Fractional effect (Fa) known as Fa-CI plots were generated and synergy was evaluated.
(§2) Viability was determined using CellTiter-Glo® (Promega).

[2] = tested on: EOL-1 (MLL-PTD) cells; test: as above; assay type: cell-based, human
Description: as §1, §2

[3] = tested on: MV4-11 (MLL-AF4) cells; test: Combination proliferation assay with Compound A2 (CellTiter-Glo, Chou-Talalay CI); assay type: cell-based, human
Summary of the method: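 Viability by CellTiter-Glo ATP luminescence; fraction affected versus DMSO controls; combination index by Chou-Talalay method (CI <1 synergy, >1 antagonism).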

[4] = tested on: MOLM-13 (MLL-AF9) cells; test: as above; assay type: cell-based, human
Summary of the method: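 Viability by CellTiter-Glo ATP luminescence; fraction affected versus DMSO controls, combination index by Chou-Talalay (CI <1 synergy, >1 antagonism).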

[5] = tested on: SKM-1 (non-MLL-rearranged AML) cells; test: as above; assay type: cell-based, human
Description: as §1, §2
MV4-11 cells were maintained in IMDM supplemented with 10% fetal bovine serum. MOLM-13 and SKM-1 cells were maintained in Roswell Park Memorial Institute medium (RPMI) supplemented with 10% fetal bovine serum. They were cultured in flasks or plates in a humidified 5% CO2 atmosphere.
Proliferation studies were performed using MOLM-13, MV4-11 and SKM-1 cell lines in vitro to evaluate the cancer cell killing effect of a combination of two agents together on cell growth. Initial proliferation studies were performed to determine the IC50 values of a given compound in each cell line. The cell counts were measured by ATP quantitation using the Promega Cell Titer Glo kit and luminescence values correspond to the amount of ATP in a given well.
Compounds evaluated for synergy in the co-treatment phase were tested in a range which was bracketed around the IC50's. The compounds were plated to a 96 well plate in a matrix format which includes increasing concentrations of each drug in the combination in a constant ratio, in addition to the effect of each compound alone in the study. Cells were seeded and grown in the log-linear phase for 3 or 7 days in the cotreatment phase. Maximum and minimum inhibition (DMSO alone) controls were used in each plate to calculate fraction affected (Fa) of a test well. DMSO concentration was kept at 0.1% v/v. The drug combination analysis was performed utilizing the Chou-Talalay method. Synergy was determined using the software package Calcusyn by Biosoft. The combination index (CI) is the term used to describe the level of synergy or antagonism in a given test system. A combination index less than one indicates synergy, and a CI greater than one indicates antagonism.
The drug combination analysis was performed using the Chou-Talalay method. Graphs representing values of combination index (CI) versus Fractional effect (Fa) known as Fa-CI plots were generated and synergy was evaluated.

[6] = tested on: ML-2 (MLL-AF6) cells; test: Example 7 retest: EPZ-5676 pre-treatment, second compound 72 h, Cell Titer Glo, growth inhibition; assay type: cell-based; design: GI100: unit not given here; conditions: ML-2 (MLL-AF6), KRAS A146T (het)
[7] = tested on: RS4-11 (MLL-AF4) cells; test: as above; assay type: cell-based; design: GI100: unit not given here; conditions: RS4-11 (MLL-AF4), Ras mutation status: None known, second compound, 72 h
[8] = tested on: SKM-1 (non-MLLr) cells; test: Example 7 primary screen: 300 nM EPZ-5676 pre-treatment, second compound 72 h, ATPLite, GI100 shift; assay type: cell-based, human; conditions: SKM-1 (non-MLLr); 300 nM EPZ-5676 pre-treatment vs DMSO
Description: (§3) Cells were split using EPZ-5676 or DMSO containing growth media and further incubated for an additional 3-day pre-treatment time. Cells were finally seeded in growth media containing EPZ-5676 or DMSO in 384-well plates at 500 cell/well density. Cells were then equilibrated in incubators for 24 hours before treatment with a second compound. Treated assay plates were incubated with a second compound for 72 hours. After this time, plates were developed for endpoint analysis using ATPLite to measure ATP content, which is used as an indicator of cell viability.
(§4) “N/D” means the GI100 of the second compound could not be determined for both conditions and “-” means not tested.
(§5) Growth Inhibition (GI) as a measure of cell viability: The cell viability of vehicle was measured at the time of dosing the second agent (T0) and after seventy-two hours (T72). A GI reading of 0% represents no growth inhibition—cells treated with test compound as compared to T72 vehicle signals were measured. […] A GI 200% represents complete death of all cells in the culture well. Compounds reaching an activity plateau of GI 200% are considered cytotoxic. GI is calculated by applying the following test and equation: […]

[9] = tested on: MOLM-13 (MLL-AF9) cells; test: as above; assay type: cell-based, human; conditions: MOLM-13 (MLL-AF9); 300 nM EPZ-5676 pre-treatment vs DMSO
Description: as §3, §4, §5

[10] = tested on: THP-1 (MLL-AF9) cells; test: Example 7 retest: EPZ-5676 pre-treatment, second compound 72 h, Cell Titer Glo, growth inhibition; assay type: cell-based; design: GI100: unit not given here; conditions: NRAS G12D
[11] = tested on: OCI-AML-4 (MLL-ENL) cells; test: as above; assay type: cell-based; conditions: OCI-AML-4 (MLL-ENL)
[12] = tested on: SKM-1 cells; test: Example 6 combination screen: 300 nM EPZ-5676 pre-treatment, second compound 72 h, ATPLite, IC50 shift; assay type: cell-based, human; conditions: SKM-1 cells; 300 nM EPZ-5676 pre-treatment (4 + 3 days) vs DMSO, then 2nd compound 72 h; ATPLite; IC50 shift of 2nd compound
Description: Cells were then equilibrated in incubators for 24 hours before treatment with a second compound. Treated assay plates were incubated with a second compound for 72 hours. After this time, plates were developed for endpoint analysis using ATPLite to measure ATP content, which is used as an indicator of cell viability.
“N/D” means that IC50 of the second compound could not be determined for both conditions.

[13] = tested on: OCI-AML-4 (MLL-ENL) cells; test: Example 7 primary screen: 300 nM EPZ-5676 pre-treatment, second compound 72 h, ATPLite, GI100 shift; assay type: cell-based; conditions: OCI-AML-4 (MLL-ENL); 300 nM EPZ-5676 pre-treatment vs DMSO
Description: as §3, §4, §5

[14] = tested on: SKM-1 (non-MLLr) cells; test: Example 7 retest: EPZ-5676 pre-treatment, second compound 72 h, Cell Titer Glo, growth inhibition; assay type: cell-based, human; design: GI100: unit not given here; conditions: SKM-1 (non-MLLr)
[15] = tested on: MOLM-13 (MLL-AF9) cells; test: as above; assay type: cell-based, human; design: GI100: unit not given here; conditions: MOLM-13 (MLL-AF9)
[16] = 300 nM EPZ-5676 pre-treatment vs DMSO
[17] = KRAS K117N (homo), second compound, 72 h

Structure (SMILES): Nc1ncn([C@@H]2O[C@H](CO)[C@@H](O)[C@H]2O)c(=O)n1 [Azacitidine]
- Combination effect with Compound A2 (Table 3) ([1]; KOPM-88 (MLL-PTD)): Synergy (Drug synergy was statistically defined by CI values less than 1)
- Combination effect with Compound A2 (Table 3) ([2]; EOL-1 (MLL-PTD)): Synergy (Drug synergy was statistically defined by CI values less than 1)
- Combination effect with Compound A2 ([3]; MV4-11, 7 Day Cotreatment (Example 1)): Synergy (A combination index less than one indicates synergy)
- Combination effect with Compound A2 (Table 2) ([3]; MV4-11 MLL-AF4): Synergy (Drug synergy was statistically defined by CI values less than 1)
- Combination effect with Compound A2 (Table 4) ([4]; MOLM-13 (MLL-AF9), 7 Day Cotreatment Model): Strong Synergy
- Combination effect with Compound A2 (Table 2) ([4]; MOLM-13 MLL-AF9): Synergy (Drug synergy was statistically defined by CI values less than 1)
- Effect of Compound A2 on antiproliferative activity of the second agent ([5]; SKM-1 non-MLL-rearranged (Example 5)): no impact

Structure (SMILES): COc1cccc2c1C(=O)c1c(O)c3c(c(O)c1C2=O)C[C@@](O)(C(C)=O)C[C@@H]3O[C@H]1C[C@H](N)[C@H](O)[C@H](C)O1 [Daunorubicin]
- Combination effect with Compound A2 (Table 3) [1]: Synergy (key: Synergy: Drug synergy was statistically defined by CI values less than 1; Antagonistic: antagonism by CI>1; Additive: additive effect by CI equal to 1)
- Combination effect with Compound A2 (Table 3) [2]: Synergy (key: Synergy: Drug synergy was statistically defined by CI values less than 1; Antagonistic: antagonism by CI>1; Additive: additive effect by CI equal to 1)
- Antiproliferative combination effect after Compound A2 washout [3]: maintained
- Antiproliferative combination effect with Compound A2 [3]: synergistic
- Antiproliferative combination effect after Compound A2 washout [4]: maintained
- Antiproliferative combination effect with Compound A2 [4]: synergistic
- Combination effect with Compound A2 (Table 2) [5]: did not act synergistically
- Effect of Compound A2 on antiproliferative activity of the second agent [5]: did not affect

Structure (SMILES): O=C(Nc1ccc2[nH]nc(-c3ccncc3)c2c1)[C@@H]1CCN(CC(=O)N2CCN(c3ccc(-c4ncccn4)cc3)CC2)C1 [SCH772984]
- Result (combination with EPZ-5676) [6]: Synergy (considered synergistic if the GI100 (Growth inhibition 100) value of the second compound decreased by 2-fold or more when EPZ-5676 was added as compared to the DMSO control)
- GI50 ([6]; second compound, 72 h): 0.04 µM
- GI100 ([6]; second compound, 72 h): 0.26
- GI50 ([7]; Homo sapiens): 7.24 µM
- GI100 [7]: >10
- Combination result with EPZ-5676, Primary screen [8]: Synergy (considered synergistic if the GI100 (Growth inhibition 100) value of the second compound decreased by 2-fold or more when EPZ-5676 was added as compared to the DMSO control)
- Combination result with EPZ-5676, Primary screen [9]: Synergy (considered synergistic if the GI100 (Growth inhibition 100) value of the second compound decreased by 2-fold or more when EPZ-5676 was added as compared to the DMSO control)
- GI50 [10]: 0.06 µM
- GI100 [10]: >10
- Combination result with EPZ-5676, Retest [11, 16]: Synergy (considered synergistic if the GI100 (Growth inhibition 100) value of the second compound decreased by 2-fold or more when EPZ-5676 was added as compared to the DMSO control)
- Result (combination with EPZ-5676) ([11]; NRAS Q61R (het)): Synergy (considered synergistic if the GI100 (Growth inhibition 100) value of the second compound decreased by 2-fold or more when EPZ-5676 was added as compared to the DMSO control)
- GI50 ([11]; NRAS Q61R (het), second compound, 72 h): 0.07 µM
- Summary of Combination Studies: SKM-1 [12]: Synergy (considered synergistic if the IC50 value of the second compound decreased by 2-fold or more when EPZ-5676 was added as compared to the DMSO control)
- Combination result with EPZ-5676, Primary screen [13]: Synergy (considered synergistic if the GI100 (Growth inhibition 100) value of the second compound decreased by 2-fold or more when EPZ-5676 was added as compared to the DMSO control)
- Combination result with EPZ-5676, Retest [14, 16]: Synergy (considered synergistic if the GI100 (Growth inhibition 100) value of the second compound decreased by 2-fold or more when EPZ-5676 was added as compared to the DMSO control)
- Result (combination with EPZ-5676) ([14]; KRAS K117N (homo)): Synergy (considered synergistic if the GI100 (Growth inhibition 100) value of the second compound decreased by 2-fold or more when EPZ-5676 was added as compared to the DMSO control)
- GI50 [14, 17]: 0.02 µM
- GI100 [14, 17]: 0.086
- GI50 ([15]; Homo sapiens, Ras mutation status: None known, second compound, 72 h): 0.21 µM
- Combination result with EPZ-5676, Retest ([15]; 150 nM EPZ-5676 pre-treatment vs DMSO): Synergy (considered synergistic if the GI100 (Growth inhibition 100) value of the second compound decreased by 2-fold or more when EPZ-5676 was added as compared to the DMSO control)
- Result (combination with EPZ-5676) ([15]; Ras mutation status: None known): Synergy (considered synergistic if the GI100 (Growth inhibition 100) value of the second compound decreased by 2-fold or more when EPZ-5676 was added as compared to the DMSO control)
- GI100 ([15]; Ras mutation status: None known, second compound, 72 h): 0.53
